This is an account of results in the NIST ThermoML archive (doi:10.1021/acs.jced.6b00829).

Usually refractive index stands for the speed of light in vacuum divided by its phase velocity in the sample. As usually defined, the mass density is mass per unit of volume.

Numbers after ± are expanded uncertainties.

Series [1] in a line: refractive index (Na D-line) (dimensionless). To be noted: 298.15 K; 101.33 kPa; Liquid; Standard Abbe refractometry.
For series [2] the following is noted: 298.15 K; 101.33 kPa; Liquid; Vibrating tube method.

In the case of `CCCCn1cc[n+](C)c1.F[P-](F)(F)(F)(F)F` [1-butyl-3-methylimidazolium hexafluorophosphate], the refractive index in series [1] turned out to be 1.4095 ± 0.0008. For the same compound, the mass density in series [2] is 1367.4 ± 2.1 kg/m3.

Take `CCO` [ethanol]: the refractive index in series [1] turned out to be 1.3594 ± 0.0008. Moreover, the mass density in series [2] stood at 786.47 ± 2 kg/m3.

For `O` [water], the refractive index in series [1] worked out at 1.3325 ± 0.0008.
